Source: US12275731B2, “Azaindole inhibitors of wild-type and mutant forms of LRRK2” (DANA-FARBER CANCER INSTITUTE, INC., priority 2018, dated 2025)

Tests used:
Experiment in all cases: KinomeScan profiling
Format in all cases: binding
PLK2 = PLK2 (Homo sapiens, UniProt Q9NYY3); details: PLK2, 1 μM; read-out: % control
In short: (§1)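 Normalised RLU (% control; DMSO 100%, positive control 0%) was measured for compounds dosed at 1 μM over 468 kinases, active cut-off <35%.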

SNRK = molecular target: T1, SNRK (Homo sapiens, UniProt Q9NRH2); details: read-out: % control
T1 construct: purchased KinomeScan® (panel service)
T1 sequence (Q9NRH2 1-765): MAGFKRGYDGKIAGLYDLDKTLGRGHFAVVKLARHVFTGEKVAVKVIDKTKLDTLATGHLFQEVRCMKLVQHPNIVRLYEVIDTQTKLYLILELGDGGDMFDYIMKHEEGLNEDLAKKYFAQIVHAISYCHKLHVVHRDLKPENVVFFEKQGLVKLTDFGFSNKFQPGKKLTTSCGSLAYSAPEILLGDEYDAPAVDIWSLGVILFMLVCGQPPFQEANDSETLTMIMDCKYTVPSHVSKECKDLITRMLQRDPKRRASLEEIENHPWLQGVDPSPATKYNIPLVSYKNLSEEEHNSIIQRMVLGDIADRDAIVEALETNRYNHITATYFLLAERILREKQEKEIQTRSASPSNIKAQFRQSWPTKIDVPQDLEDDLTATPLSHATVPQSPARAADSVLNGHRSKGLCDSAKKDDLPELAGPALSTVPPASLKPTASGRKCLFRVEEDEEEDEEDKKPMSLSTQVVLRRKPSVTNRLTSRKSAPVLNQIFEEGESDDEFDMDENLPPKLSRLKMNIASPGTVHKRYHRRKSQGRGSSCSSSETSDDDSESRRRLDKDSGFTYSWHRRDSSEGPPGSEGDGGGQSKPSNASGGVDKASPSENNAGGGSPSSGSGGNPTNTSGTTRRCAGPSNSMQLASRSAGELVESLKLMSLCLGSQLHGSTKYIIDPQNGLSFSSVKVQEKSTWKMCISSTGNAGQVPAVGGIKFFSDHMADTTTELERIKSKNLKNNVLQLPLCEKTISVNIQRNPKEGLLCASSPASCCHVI
In short: as §1

IRAK1 = molecular target: T2, IRAK1 (Homo sapiens, UniProt P51617); details: IRAK1, 1 μM; read-out: % control
T2 construct: purchased KinomeScan®
In short: as §1

PAK4 = PAK4 (Homo sapiens, UniProt O96013); details: PAK4, 1 μM; read-out: % control
In short: as §1

ALK(L1196M) = molecular target: T3, ALK(L1196M) (Homo sapiens, UniProt Q9UM73, L1196M); details: read-out: % control
T3 construct: purchased KinomeScan®
In short: as §1

GRK1 = molecular target: T4, GRK1 (Homo sapiens, UniProt Q15835); details: GRK1, 1 μM; read-out: % control
T4 sequence (Q15835 1-563): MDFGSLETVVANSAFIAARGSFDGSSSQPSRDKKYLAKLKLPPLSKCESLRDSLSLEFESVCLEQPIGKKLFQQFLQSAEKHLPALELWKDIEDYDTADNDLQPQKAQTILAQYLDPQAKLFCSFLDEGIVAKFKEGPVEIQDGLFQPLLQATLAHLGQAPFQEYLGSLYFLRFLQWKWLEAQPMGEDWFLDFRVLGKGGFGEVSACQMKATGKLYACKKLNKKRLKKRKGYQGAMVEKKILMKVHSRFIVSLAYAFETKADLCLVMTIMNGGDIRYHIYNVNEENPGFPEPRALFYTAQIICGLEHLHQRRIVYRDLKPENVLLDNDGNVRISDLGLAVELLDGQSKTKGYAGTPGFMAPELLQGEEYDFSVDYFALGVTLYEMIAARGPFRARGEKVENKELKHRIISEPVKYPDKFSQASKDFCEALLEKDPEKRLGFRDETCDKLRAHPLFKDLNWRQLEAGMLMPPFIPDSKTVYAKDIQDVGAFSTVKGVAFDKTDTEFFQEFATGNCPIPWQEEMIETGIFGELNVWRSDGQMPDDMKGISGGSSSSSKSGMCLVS
In short: as §1

VPS34 = VPS34 (Homo sapiens, UniProt Q8NEB9); details: VPS34, 1 μM; read-out: % control
In short: as §1

PLK2, sequence (Q9NYY3 whole entry): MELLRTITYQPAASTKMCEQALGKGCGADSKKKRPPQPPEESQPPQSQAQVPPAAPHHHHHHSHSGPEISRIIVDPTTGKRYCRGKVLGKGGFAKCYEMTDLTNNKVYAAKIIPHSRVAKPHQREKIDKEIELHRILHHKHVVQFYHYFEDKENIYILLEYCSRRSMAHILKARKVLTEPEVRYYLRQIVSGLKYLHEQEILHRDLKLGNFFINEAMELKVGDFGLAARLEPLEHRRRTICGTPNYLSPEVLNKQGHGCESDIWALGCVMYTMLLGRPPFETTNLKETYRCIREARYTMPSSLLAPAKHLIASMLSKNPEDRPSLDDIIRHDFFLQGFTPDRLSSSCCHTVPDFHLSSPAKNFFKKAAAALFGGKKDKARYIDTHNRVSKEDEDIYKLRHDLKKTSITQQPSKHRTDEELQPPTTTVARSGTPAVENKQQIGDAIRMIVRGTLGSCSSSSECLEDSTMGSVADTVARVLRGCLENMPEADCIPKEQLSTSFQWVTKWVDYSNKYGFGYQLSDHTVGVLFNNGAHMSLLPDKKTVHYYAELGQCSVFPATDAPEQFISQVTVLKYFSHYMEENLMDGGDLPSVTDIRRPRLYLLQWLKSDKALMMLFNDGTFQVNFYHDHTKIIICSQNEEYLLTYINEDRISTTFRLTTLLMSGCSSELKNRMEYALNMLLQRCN
T3 sequence (Q9UM73 19-1620 L1196M): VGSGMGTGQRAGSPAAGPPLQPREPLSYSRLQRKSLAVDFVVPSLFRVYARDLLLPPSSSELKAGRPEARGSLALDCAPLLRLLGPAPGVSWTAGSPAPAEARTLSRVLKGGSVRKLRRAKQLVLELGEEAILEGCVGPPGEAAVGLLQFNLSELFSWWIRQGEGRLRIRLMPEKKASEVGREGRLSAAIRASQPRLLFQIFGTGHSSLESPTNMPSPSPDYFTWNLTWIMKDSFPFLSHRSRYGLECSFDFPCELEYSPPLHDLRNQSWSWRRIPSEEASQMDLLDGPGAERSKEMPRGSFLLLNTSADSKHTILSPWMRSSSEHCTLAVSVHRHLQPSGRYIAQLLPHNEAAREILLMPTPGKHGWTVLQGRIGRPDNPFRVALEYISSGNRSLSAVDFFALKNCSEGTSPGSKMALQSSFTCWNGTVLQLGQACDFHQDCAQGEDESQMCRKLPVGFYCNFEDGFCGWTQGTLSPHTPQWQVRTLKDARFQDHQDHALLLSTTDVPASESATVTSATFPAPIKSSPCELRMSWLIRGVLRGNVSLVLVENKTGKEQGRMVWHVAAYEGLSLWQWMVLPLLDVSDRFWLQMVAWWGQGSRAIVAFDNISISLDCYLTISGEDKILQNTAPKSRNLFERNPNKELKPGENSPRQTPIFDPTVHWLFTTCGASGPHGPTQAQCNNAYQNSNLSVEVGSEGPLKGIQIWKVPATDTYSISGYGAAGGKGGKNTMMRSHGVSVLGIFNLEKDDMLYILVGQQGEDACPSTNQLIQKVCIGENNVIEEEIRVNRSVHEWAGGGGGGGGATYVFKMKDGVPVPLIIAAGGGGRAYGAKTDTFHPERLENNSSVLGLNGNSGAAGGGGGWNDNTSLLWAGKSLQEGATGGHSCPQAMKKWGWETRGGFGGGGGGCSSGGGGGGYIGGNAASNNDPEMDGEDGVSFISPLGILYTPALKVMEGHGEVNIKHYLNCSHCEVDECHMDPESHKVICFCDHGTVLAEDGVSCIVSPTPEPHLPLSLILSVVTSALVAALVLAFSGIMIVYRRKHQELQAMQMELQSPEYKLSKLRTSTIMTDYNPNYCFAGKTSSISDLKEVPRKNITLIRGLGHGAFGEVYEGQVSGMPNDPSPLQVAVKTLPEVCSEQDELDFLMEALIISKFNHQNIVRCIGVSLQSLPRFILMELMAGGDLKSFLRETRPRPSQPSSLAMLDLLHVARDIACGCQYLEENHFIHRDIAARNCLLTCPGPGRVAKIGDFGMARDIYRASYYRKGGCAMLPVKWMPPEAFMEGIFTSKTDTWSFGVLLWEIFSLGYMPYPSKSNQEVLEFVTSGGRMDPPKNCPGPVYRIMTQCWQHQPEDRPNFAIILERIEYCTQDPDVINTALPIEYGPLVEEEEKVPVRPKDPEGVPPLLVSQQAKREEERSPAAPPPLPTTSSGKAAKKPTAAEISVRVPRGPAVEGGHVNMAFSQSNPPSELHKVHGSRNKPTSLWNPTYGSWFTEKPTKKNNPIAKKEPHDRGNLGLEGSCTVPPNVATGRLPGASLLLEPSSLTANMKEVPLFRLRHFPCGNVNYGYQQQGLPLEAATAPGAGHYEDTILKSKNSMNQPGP
T2 sequence (P51617 whole entry): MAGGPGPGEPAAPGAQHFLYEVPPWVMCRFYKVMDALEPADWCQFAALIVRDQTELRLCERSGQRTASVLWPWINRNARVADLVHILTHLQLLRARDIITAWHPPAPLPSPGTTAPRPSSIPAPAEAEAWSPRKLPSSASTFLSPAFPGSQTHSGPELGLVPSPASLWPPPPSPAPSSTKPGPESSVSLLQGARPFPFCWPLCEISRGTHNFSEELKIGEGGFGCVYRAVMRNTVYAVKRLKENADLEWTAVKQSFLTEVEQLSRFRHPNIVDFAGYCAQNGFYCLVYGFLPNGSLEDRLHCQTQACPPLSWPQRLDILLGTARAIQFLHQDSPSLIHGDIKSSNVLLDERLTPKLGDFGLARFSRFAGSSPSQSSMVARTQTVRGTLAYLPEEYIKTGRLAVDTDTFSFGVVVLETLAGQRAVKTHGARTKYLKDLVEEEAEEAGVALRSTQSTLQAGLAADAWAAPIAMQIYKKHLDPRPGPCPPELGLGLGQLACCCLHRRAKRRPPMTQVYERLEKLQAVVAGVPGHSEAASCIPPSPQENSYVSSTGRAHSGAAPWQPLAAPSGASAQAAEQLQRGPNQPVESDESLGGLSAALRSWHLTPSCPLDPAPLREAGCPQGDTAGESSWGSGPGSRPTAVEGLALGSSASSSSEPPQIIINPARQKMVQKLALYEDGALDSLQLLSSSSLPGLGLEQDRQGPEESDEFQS
VPS34, sequence (Q8NEB9 whole entry): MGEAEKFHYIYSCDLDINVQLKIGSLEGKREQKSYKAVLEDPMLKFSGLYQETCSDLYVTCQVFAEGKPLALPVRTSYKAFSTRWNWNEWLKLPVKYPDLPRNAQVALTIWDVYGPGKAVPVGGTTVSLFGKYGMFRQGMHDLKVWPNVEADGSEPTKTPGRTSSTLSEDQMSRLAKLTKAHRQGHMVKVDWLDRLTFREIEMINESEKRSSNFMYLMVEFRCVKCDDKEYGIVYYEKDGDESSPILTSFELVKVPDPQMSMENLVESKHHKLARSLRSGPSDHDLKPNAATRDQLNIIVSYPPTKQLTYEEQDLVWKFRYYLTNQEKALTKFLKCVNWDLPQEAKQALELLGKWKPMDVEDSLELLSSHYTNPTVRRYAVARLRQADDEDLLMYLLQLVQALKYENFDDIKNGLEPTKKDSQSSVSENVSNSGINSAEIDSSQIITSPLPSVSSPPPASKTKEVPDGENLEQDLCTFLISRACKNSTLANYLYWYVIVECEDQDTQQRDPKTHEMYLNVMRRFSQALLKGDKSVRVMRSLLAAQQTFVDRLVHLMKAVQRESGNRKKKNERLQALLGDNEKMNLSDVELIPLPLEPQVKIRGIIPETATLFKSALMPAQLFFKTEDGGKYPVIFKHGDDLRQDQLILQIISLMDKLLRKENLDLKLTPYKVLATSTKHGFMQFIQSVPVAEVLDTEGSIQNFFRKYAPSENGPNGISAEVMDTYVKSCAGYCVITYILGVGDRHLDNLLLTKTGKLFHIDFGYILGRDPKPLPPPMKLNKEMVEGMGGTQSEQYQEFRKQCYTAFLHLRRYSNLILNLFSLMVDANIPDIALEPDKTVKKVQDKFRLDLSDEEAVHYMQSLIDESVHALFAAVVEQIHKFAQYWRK
PAK4, sequence (O96013 whole entry): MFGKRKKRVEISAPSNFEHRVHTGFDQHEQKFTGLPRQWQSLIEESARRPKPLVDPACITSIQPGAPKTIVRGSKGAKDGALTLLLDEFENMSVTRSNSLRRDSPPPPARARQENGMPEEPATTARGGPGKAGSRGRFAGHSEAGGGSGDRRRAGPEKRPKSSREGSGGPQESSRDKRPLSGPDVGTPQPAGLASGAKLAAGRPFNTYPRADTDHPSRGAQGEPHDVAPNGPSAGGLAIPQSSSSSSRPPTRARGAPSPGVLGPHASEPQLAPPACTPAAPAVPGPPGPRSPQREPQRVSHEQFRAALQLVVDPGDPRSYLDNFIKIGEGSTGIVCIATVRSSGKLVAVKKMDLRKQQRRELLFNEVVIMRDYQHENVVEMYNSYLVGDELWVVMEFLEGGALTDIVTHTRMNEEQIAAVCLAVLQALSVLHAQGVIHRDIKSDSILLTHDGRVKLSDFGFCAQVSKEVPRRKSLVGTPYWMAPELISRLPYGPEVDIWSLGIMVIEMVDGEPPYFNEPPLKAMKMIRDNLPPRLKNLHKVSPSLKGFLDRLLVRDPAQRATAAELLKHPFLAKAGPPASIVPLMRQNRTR

Row | SMILES | remaining binding at 1 µM (PLK2) [%] | remaining binding at 1 µM (SNRK) [%] | remaining binding at 1 µM (IRAK1) [%] | remaining binding at 1 µM (PAK4) [%] | remaining binding at 1 µM (ALK(L1196M)) [%] | remaining binding at 1 µM (GRK1) [%] | remaining binding at 1 µM (VPS34) [%]
1 | CNc1c(-c2cnn([C@H]3CCN(C(C)=O)C[C@@H]3F)c2)cnc2[nH]cc(Cl)c12 [Compound 77, 1-((3S,4S)-4-(4-(3-chloro-4-(methylamino)-1H-pyrrolo[2,3-b]pyridin-5-yl)-1H-pyrazol-1-yl)-3-fluoropiperidin-1-yl)ethan-1-one] | 85 | 100 | 33 | 65 | 91 | 60 | 35
2 | CNc1c(-c2ccc(C(=O)N3CCC(N4CCOCC4)CC3)cc2)cnc2[nH]cc(Cl)c12 [Compound 96, (4-(3-chloro-4-(methylamino)-1H-pyrrolo[2,3-b]pyridin-5-yl)phenyl)(4-morpholinopiperidin-1-yl)methanone] | 100 | 100 | 41 | 31 | 51 | 63 | 51
3 | O=C(c1ccc(-c2cnc3[nH]cc(Cl)c3c2NC2CCCC2)cc1)N1CCC(N2CCOCC2)CC1 [Compound 101, (4-(3-chloro-4-(cyclopentylamino)-1H-pyrrolo[2,3-b]pyridin-5-yl)phenyl)(4-morpholinopiperidin-1-yl)methanone] | 100 | 100 | 100 | 100 | 94 | 84 | 100
